Laboratory results published in US20240246964A1 (Arbutus Biopharma Corporation, priority 2021, published 2024).

Key:
[1] = target: PD-L1 His protein / PD-1 Fc protein (Homo sapiens (Human), UniProt Q9NZQ7); assay: HTRF Assay (PD-1/PD-L1 interaction); type: binding; settings: PD-L1 His 6 nM, PD-1 Fc 6 nM
human PD-L1 = human PD-L1 (Homo sapiens (Human), UniProt Q9NZQ7); assay: T cell activation luciferase reporter cell culture system (T Cell Activation Assay); type: cell-based; settings: luciferase reporter assay; PD-L1 aAPC/CHO-K1 cells with PD-1 effector Jurkat T cells
Chain of human PD-L1 (Q9NZQ7 19-290): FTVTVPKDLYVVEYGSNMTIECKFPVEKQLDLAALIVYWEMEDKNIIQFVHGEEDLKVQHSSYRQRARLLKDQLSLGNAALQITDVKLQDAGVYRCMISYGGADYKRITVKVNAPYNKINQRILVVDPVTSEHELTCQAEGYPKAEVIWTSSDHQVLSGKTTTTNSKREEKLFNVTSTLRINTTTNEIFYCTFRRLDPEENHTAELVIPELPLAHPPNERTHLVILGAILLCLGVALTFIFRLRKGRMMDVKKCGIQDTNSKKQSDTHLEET

Chain of PD-L1 His protein / PD-1 Fc protein (Q9NZQ7 19-238): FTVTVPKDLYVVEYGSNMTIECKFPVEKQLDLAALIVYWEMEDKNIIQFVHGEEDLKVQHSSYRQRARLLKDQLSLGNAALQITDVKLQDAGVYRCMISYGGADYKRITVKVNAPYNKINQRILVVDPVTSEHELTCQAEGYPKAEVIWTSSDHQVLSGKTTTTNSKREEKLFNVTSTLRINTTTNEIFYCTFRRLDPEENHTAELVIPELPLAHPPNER

SMILES	IC50 [1]	EC50 (human PD-L1)
COc1cc(-c2nccc(-c3cccc(-c4ccc(CNC[C@@H]5CCC(=O)N5)c(OC)n4)c3C(F)(F)F)c2Cl)ccc1CNC[C@@H]1CCC(=O)N1 [Example 610, (S)-5-((((6-(3-(3-Chloro-2-(3-methoxy-4-(((((S)-5-oxopyrrolidin-2-yl)methyl)amino)methyl)phenyl)pyridin-4-yl)-2-(trifluoromethyl)phenyl)-2-methoxypyridin-3-yl)methyl)amino)methyl)pyrrolidin-2-one]	1.52 nM	2110 nM
COc1cc(-c2nccc(-c3cccc4c3CCC[C@@H]4Nc3nc(OC)c(CN4CC5(CNC(=O)C5)C4)cc3C(F)(F)F)c2Cl)ccc1CNC[C@@H]1CCC(=O)N1 [Example 724, 2-((6-(((S)-5-(3-Chloro-2-(3-methoxy-4-(((((S)-5-oxopyrrolidin-2-yl)methyl)amino)methyl)phenyl)pyridin-4-yl)-1,2,3,4-tetrahydronaphthalen-1-yl)amino)-2-methoxy-5-(trifluoromethyl)pyridin-3-yl)methyl)-2,6-diazaspiro[3.4]octan-7-one]	585 nM	≥ 10000 nM
COc1cc(-c2nccc(-c3cccc(NC(=O)c4ccc(CNCCO)cn4)c3C)c2Cl)ccc1CNC[C@@H]1CCC(=O)N1 [Example 735, (S)—N-(3-(3-Chloro-2-(3-methoxy-4-((((5-oxopyrrolidin-2-yl)methyl)amino)methyl)phenyl)pyridin-4-yl)-2-methylphenyl)-5-(((2-hydroxyethyl)amino)methyl)picolinamide]	0.03 nM	15.6 nM
COc1nc(-c2cccc(-c3ccnc(-c4ccc5c(CNC[C@H](C)O)cn(C)c5c4)c3Cl)c2Cl)ccc1CNC[C@@H]1CCC(=O)N1 [Compound 35, (S)-5-((((6-(2-chloro-3-(3-chloro-2-(3-((((S)-2-hydroxypropyl)amino)methyl)-1-methyl-1H-indol-6-yl)pyridin-4-yl)phenyl)-2-methoxypyridin-3-yl)methyl)amino)methyl)pyrrolidin-2-one]	1.1 nM	855 nM
COc1nc(-c2cccc(-c3ccnc(-c4ccc5c(CNCC(C)C)cn(C)c5c4)c3Cl)c2Cl)ccc1CNC[C@@H]1CCC(=O)N1 [Compound 38, (S)-5-((((6-(2-chloro-3-(3-chloro-2-(3-((isobutylamino)methyl)-1-methyl-1H-indol-6-yl)pyridin-4-yl)phenyl)-2-methoxypyridin-3-yl)methyl)amino)methyl)pyrrolidin-2-one]	116 nM	369 nM
COc1cc(-c2nccc(-c3cccc(-c4ccc(CN5CCC(NC(C)=O)CC5)c(OC)n4)c3Cl)c2Cl)ccc1CNC1CCN(C(C)=O)CC1 [Example 341, N-(1-((6-(3-(2-(4-(((1-acetylpiperidin-4-yl)amino)methyl)-3-methoxyphenyl)-3-chloropyridin-4-yl)-2-chlorophenyl)-2-methoxypyridin-3-yl)methyl)piperidin-4-yl)acetamide]	1.14 nM	22.6 nM
COc1cc(-c2nccc(-c3cccc(NC(=O)c4cn(C)c(=O)n(C)c4=O)c3Cl)c2Cl)ccc1CN1CC2(CNC(=O)C2)C1 [Example 658, N-(2-Chloro-3-(3-chloro-2-(3-methoxy-4-((7-oxo-2,6-diazaspiro[3.4]octan-2-yl)methyl)phenyl)pyridin-4-yl)phenyl)-1,3-dimethyl-2,4-dioxo-1,2,3,4-tetrahydropyrimidine-5-carboxamide]	0.25 nM	492 nM
COc1cc(-c2nccc(-c3cccc(-c4ccc(CN5CCC6(CC5)CC(=O)N6)c(OC)n4)c3Cl)c2Cl)ccc1CN1CCC2(CC1)CC(=O)N2 [Example 353, 7-((6-(2-Chloro-3-(3-chloro-2-(3-methoxy-4-((2-oxo-1,7-diazaspiro[3.5]nonan-7-yl)methyl)phenyl)pyridin-4-yl)phenyl)-2-methoxypyridin-3-yl)methyl)-1,7-diazaspiro[3.5]nonan-2-one]	0.16 nM	≥ 10000 nM
COc1cc(CNC[C@H](C)O)cc(-c2nccc(-c3cccc(-c4ccc(CNC[C@H](C)O)c(OC)n4)c3Cl)c2Cl)c1 [Compound 157, (S)-1-(((6-(2-chloro-3-(3-chloro-2-(3-((((S)-2-hydroxypropyl)amino)methyl)-5-methoxyphenyl)pyridin-4-yl)phenyl)-2-methoxypyridin-3-yl)methyl)amino)propan-2-ol]	2.45 nM	≥ 10000 nM
COc1cc(-c2nccc(-c3cccc(-c4ccc(CNC5CCN(C(=O)C6CC6)CC5)c(OC)n4)c3Cl)c2Cl)cc(F)c1CNC1CCN(C(=O)C2CC2)CC1 [Example 316, (4-(((6-(2-Chloro-3-(3-chloro-2-(4-(((1-(cyclopropanecarbonyl)piperidin-4-yl)amino)methyl)-3-fluoro-5-methoxyphenyl)pyridin-4-yl)phenyl)-2-methoxypyridin-3-yl)methyl)amino)piperidin-1-yl)(cyclopropyl)methanone]	3.45 nM	45.7 nM
COC(=O)C1(CN2CCc3cc(-c4nccc(-c5cccc(-c6ccc(CN7CC8(CNC(=O)C8)C7)c(OC)n6)c5Cl)c4Cl)cc(OC)c3C2)CC1 [Example 295, Methyl 1-((6-(3-chloro-4-(2-chloro-3-(6-methoxy-5-((7-oxo-2,6-diazaspiro [3.4]octan-2-yl)methyl)pyridin-2-yl)phenyl)pyridin-2-yl)-8-methoxy-3,4-dihydroisoquinolin-2(1H)-yl)methyl)cyclopropane-1-carboxylate]	2.1 nM	233 nM
COc1cc(-c2nccc(-c3cccc(-c4cc(F)c(CNC[C@@H]5CCC(=O)N5)c(OC)n4)c3Cl)c2Cl)cc2c1CN(CCO)CC2 [Compound 132, (S)-5-((((6-(2-chloro-3-(3-chloro-2-(2-(2-hydroxyethyl)-8-methoxy-1,2,3,4-tetrahydroisoquinolin-6-yl)pyridin-4-yl)phenyl)-4-fluoro-2-methoxypyridin-3-yl)methyl)amino)methyl)pyrrolidin-2-one]	0.408 nM	51.2 nM
CNCc1ccc(-c2cccc(-c3ccnc(-c4ccc5c(c4)CNC5)c3Cl)c2Cl)nc1OC [Compound 159, 1-(6-(2-chloro-3-(3-chloro-2-(isoindolin-5-yl)pyridine-4-yl)phenyl)-2-methoxypyridin-3-yl)-N-methylmethanamine]	1.34 nM	≥ 10000 nM
COc1cc(-c2nccc(-c3cccc(-c4ccc(CNC5CCC(F)(F)CC5)c(OC)n4)c3Cl)c2Cl)ccc1CNC1CCC(F)(F)CC1 [Example 327, N-((6-(2-Chloro-3-(3-chloro-2-(4-(((4,4-difluorocyclohexyl)amino)methyl)-3-methoxyphenyl)pyridin-4-yl)phenyl)-2-methoxypyridin-3-yl)methyl)-4,4-difluorocyclohexan-1-amine]	1.7 nM	178 nM
COc1cc(-c2nccc(-c3cccc(NC(=O)c4ccc(CN5CC6(C5)CN(C(C)=O)C6)cn4)c3Cl)c2Cl)ccc1CN1CC2(C1)CN(C(C)=O)C2 [Example 677, 5-((6-Acetyl-2,6-diazaspiro[3.3]heptan-2-yl)methyl)-N-(3-(2-(4-((6-acetyl-2,6-diazaspiro[3.3]heptan-2-yl)methyl)-3-methoxyphenyl)-3-chloropyridin-4-yl)-2-chlorophenyl)picolinamide]	0.04 nM	1210 nM
CNCc1cn(C)c2cc(-c3nccc(-c4cccc(-c5ccc(CNC[C@@H]6CCC(=O)N6)c(OC)n5)c4Cl)c3Cl)ccc12 [Compound 31, (S)-5-((((6-(2-chloro-3-(3-chloro-2-(1-methyl-3-((methylamino)methyl)-1H-indol-6-yl)pyridin-4-yl)phenyl)-2-methoxypyridin-3-yl)methyl)amino)methyl)pyrrolidin-2-one]	0.3 nM	134 nM
COc1cc(-c2nccc(-c3cccc(-c4ccc(CNC5CCN(C(C)=O)CC5)c(OC)n4)c3Cl)c2Cl)ccc1CN[C@@H](CCO)C(=O)O [Example 343, (4-(4-(3-(5-(((1-Acetylpiperidin-4-yl)amino)methyl)-6-methoxypyridin-2-yl)-2-chlorophenyl)-3-chloropyridin-2-yl)-2-methoxybenzyl)-L-homoserine]	0.09 nM	248 nM
CNCc1ccc(-c2cccc(-c3ccnc(-c4ccc(CN5CC[C@H](C(=O)O)C5)c(OC)c4)c3Cl)c2Cl)nc1OC [Compound 226, (S)-1-(4-(3-chloro-4-(2-chloro-3-(6-methoxy-5-((methylamino)methyl)pyridin-2-yl)phenyl)pyridin-2-yl)-2-methoxybenzyl)pyrrolidine-3-carboxylic acid]	0.27 nM	62.7 nM
COc1cc(-c2nccc(-c3cccc(-c4ccc(CNCCCNC(C)=O)c(OC)n4)c3Cl)c2Cl)ccc1CNCCCNC(C)=O [Example 358, N-(3-(((6-(3-(2-(4-(((3-Acetamidopropyl)amino)methyl)-3-methoxyphenyl)-3-chloropyridin-4-yl)-2-chlorophenyl)-2-methoxypyridin-3-yl)methyl)amino)propyl) acetamide]	0.12 nM	64.4 nM
COc1cc(-c2nccc(-c3cccc(-c4ccc(CNC5CCN(C(C)=O)CC5)c(OC)n4)c3Cl)c2Cl)ccc1CN1CC2(COC2)C1 [Example 380, 1-(4-(((6-(3-(2-(4-((2-Oxa-6-azaspiro[3.3]heptan-6-yl)methyl)-3-methoxyphenyl)-3-chloropyridin-4-yl)-2-chlorophenyl)-2-methoxypyridin-3-yl)methyl)amino)piperidin-1-yl)ethan-1-one]	1.43 nM	20.5 nM
COc1cc(-c2cccc(-c3ccnc(-c4cnc(CN5CC6(CNC(=O)C6)C5)c(OC)c4)c3Cl)c2Cl)ccc1CN1CC2(CNC(=O)C2)C1 [Compound 501, 2-((3-Chloro-4-(2-chloro-3′-methoxy-4′-((7-oxo-2,6-diazaspiro[3.4]octan-2-yl)methyl)-[1,1′-biphenyl]-3-yl)-5′-methoxy-[2,3′-bipyridin]-6′-yl)methyl)-2,6-diazaspiro[3.4]octan-7-one]	0.92 nM	94.1 nM
